Measured values: ChEMBL document CHEMBL3886170, “Pyrrolo[3,2-c]pyridine tropomyosin-related kinase inhibitors” (2015)

Target: High affinity nerve growth factor receptor (Homo sapiens, UniProt P04629)
Test: HTRF Assay: Isolated TRK Enzyme assays use the HTRF KinEASE-TK kit (Cisbio Cat#62TK0PEJ) with recombinant His-tagged cytoplasmic domains of each TRK receptor sourced from Invitrogen (see table below). […] A standard curve using the compound of Example 135 disclosed in WO2005/116035 of 150 uM is also prepared on each test plate. High percentage effect (HPE) is defined by 150 uM.

Sequence of High affinity nerve growth factor receptor (P04629 whole entry, the tested form may be a part): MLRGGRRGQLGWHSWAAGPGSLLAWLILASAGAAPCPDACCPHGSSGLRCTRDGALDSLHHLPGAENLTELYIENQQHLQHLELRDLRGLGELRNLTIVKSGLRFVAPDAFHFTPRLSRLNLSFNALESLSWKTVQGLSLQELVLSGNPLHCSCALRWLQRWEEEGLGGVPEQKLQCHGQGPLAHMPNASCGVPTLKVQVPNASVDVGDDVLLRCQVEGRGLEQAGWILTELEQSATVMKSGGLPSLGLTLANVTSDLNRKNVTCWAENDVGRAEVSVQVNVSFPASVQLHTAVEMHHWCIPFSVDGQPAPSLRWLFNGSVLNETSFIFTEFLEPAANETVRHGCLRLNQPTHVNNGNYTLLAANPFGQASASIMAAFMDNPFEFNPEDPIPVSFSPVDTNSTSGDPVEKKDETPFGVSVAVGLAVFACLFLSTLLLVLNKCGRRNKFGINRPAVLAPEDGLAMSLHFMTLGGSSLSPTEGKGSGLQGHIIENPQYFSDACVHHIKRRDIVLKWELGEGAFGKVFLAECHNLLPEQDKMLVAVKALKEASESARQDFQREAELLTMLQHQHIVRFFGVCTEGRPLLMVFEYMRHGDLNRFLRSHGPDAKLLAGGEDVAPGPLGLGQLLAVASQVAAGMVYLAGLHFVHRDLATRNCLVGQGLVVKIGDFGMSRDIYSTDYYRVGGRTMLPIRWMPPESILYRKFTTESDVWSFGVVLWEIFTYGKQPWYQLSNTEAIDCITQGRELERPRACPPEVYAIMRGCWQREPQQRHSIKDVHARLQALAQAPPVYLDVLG

Row | IC50 [µM] | Compound
1 | 0.0124 | CC(C)(CO)n1cc(C(=O)c2cncc(NC(=O)Cn3cc(C4CC4)nn3)c2)c2cnccc21
2 | 0.0793 | CC(C)(CO)n1cc(C(=O)c2cc(NC(=O)Cn3cc(C(F)(F)F)nn3)ccn2)c2cnccc21
3 | 0.00653 | CC(C)(CO)n1cc(C(=O)c2cncc(NC(=O)Cc3ccc(Cl)cc3)c2)c2cncc(F)c21
4 | 0.00954 | CC(C)(CO)n1cc(C(=O)c2cncc(NC(=O)Cc3ccc(C#N)cc3)c2)c2cnccc21
